Series [1] has as its system HaCaT (keratinocytes). The experiment in a line: Anticancer assay in vitro (sulforhodamine B), HaCaT. The note with it: 48 h; for GI50: SRB; for TGI: total growth inhibition. The series is classed as cell-based. The method, then:
(§1) The experiments were performed in triplicate.

Test in series [2]: as above
The series is classed as cell-based. The following applies: human, HaCaT keratinocytes, killing 50% of cells, read-out: LC50. The method, then: as §1

The subject of series [3] is OVCAR-3 (ovarian). Briefly: Anticancer assay in vitro (sulforhodamine B), OVCAR-3. The note with it: for GI50: OVCAR-3, 48 h, SRB; for TGI: OVCAR-3, total growth inhibition, 48 h. It counts as cell-based. The method, then: as §1
Series [4] concerns U251 (glioma, CNS). Briefly: cells. The note with it: for TGI: U251, total growth inhibition, 48 h. The method, then: The GI50 values (growth inhibitory activity) (Table 1) refer to the drug concentration that produces a 50% reduction of cellular growth compared with the untreated control cells. The TGI (cytostatic activity) and LC50 (cytotoxic activity) values (Table 2) refer to the drug concentration required for total growth inhibition and killing 50% of the cells, respectively.
The synthesized compounds were assessed in the following ten human tumor cell lines from various tissues kindly provide by the National Cancer Institute (Frederick, MD, USA): U251 (glioma, CNS), MCF-7 (breast), NCI-ADR/RES (breast expressing the multiple drug resistance phenotype), 786-0 (renal), NCI-H460 (lung, non-small cells), PC-3 (prostate), OVCAR-3 (ovarian), HT-29 (colon), K-562 (leukemia) and HaCaT (keratinocytes). Stock cultures were grown in media containing 5 mL of RPMI 1640 (Gibco BRL) supplemented with 5% fetal bovine serum. Gentamicin ([…]) was added to the experimental cultures. Cells in 96-well plates (100 µL cells/well) were exposed to sample concentrations in DMSO/RPMI (0.25, 2.5, 25, and 250 µg/mL) at 37 °C and 5% CO2 for 48 h. […] Next, cells were fixed with 50% trichloroacetic acid, and cell proliferation was determined by spectrophotometric quantification (540 nm) of cellular protein content employing the sulforhodamine B assay. Doxorubicin (0.025–25 µg/mL) was used as a positive control. Three measurements were obtained: first at time point zero (T0, at the beginning of incubation) and then 48 h post-incubation for both the compound-free (C) and tested (T) cells. Cell proliferation was determined using the equation 100 × [(T − T0)/C − T0]. A cytostatic effect was observed when T ≥ T0, while a cytocidal effect occurred when T < T0. The experiments were performed in triplicate.

Series [5] has as its system NCI-H460 (lung, non-small cells). The experiment in a line: cells. The note with it: for GI50: NCI-H460, 48 h, SRB; for TGI: NCI-H460, total growth inhibition, 48 h. It counts as cell-based. The method, then:
as §1

In series [6] the test system is 786-0 (renal). The experiment in a line: cells. The following applies: for TGI: 786-0, total growth inhibition, 48 h; for GI50: 786-0, 48 h, SRB. The series is classed as cell-based. The method, then:
as §1

For series [7], the system named is K-562 (leukemia). The experiment in a line: cells. It counts as cell-based. The note with it: for GI50: K-562, 48 h, SRB. The method, then:
as §1

The test system of series [8] is NCI-ADR/RES (breast expressing the multiple drug resistance phenotype). The experiment in a line: cells. The series is classed as cell-based. The note with it: NCI/ADR-RES, 48 h; for GI50: SRB; for TGI: total growth inhibition. The procedure: as §1
Series [9] relates to PC-3 (prostate). The experiment in a line: cells. It counts as cell-based. The note with it: for GI50: PC-3, 48 h, SRB; for TGI: PC-3, total growth inhibition, 48 h. The procedure:
as §1

Series [10] relates to MCF-7 (breast). Briefly: Anticancer assay in vitro (sulforhodamine B), MCF-7. It counts as cell-based. The note with it: for GI50: MCF-7, 48 h, SRB. The procedure:
as §1

Series [11] concerns HT-29 (colon). The experiment in a line: Anticancer assay in vitro (sulforhodamine B), HT-29. The series is classed as cell-based. The note with it: for TGI: HT-29, total growth inhibition; for GI50: HT-29, 48 h, SRB. The procedure:
as §1

The test system of series [12] is ten human tumor cell lines. Briefly: Anticancer assay in vitro (sulforhodamine B), statements over the panel of cell lines. The following applies: bound or range over all (for 4: nine) human tumor cell lines; read-out: GI50 values over the cell lines tested. The series is classed as cell-based. The method, then: as §1
The mark [13] stands for this setting: MCF-7, total growth inhibition, 48 h.
[14] abbreviates: K-562, total growth inhibition, 48 h.

Converted amounts (≈) assume the structure as drawn.

In general, GI50 refers to the concentration that inhibits growth by half. The term TGI denotes the concentration at which net growth stops. Low values mean more potent growth arrest, high ones less potent growth arrest. Take `NNC(=O)c1cc(O)c(O)c(O)c1` [Compound 3, Galloyl hydrazide]: the GI50 was 2500 nM in series [1] (Homo sapiens); no more than 890 nM in series [3] (Homo sapiens); 880 nM in [3]; 1110 nM in series [4] (Homo sapiens, U-251, 48 h); 5540 nM in [5] (Homo sapiens); 1560 nM in [6] (Homo sapiens). Moreover, the GI50 is 1170 nM in series [7] (Homo sapiens, K562); 910 nM in series [8] (Homo sapiens); 3530 nM in series [9] (Homo sapiens); 850 nM in series [10] (Homo sapiens, MCF7); 1210 nM in series [11] (Homo sapiens). Besides, the TGI turned out to be 29.02 µg/mL (≈ 158 µM) in series [1]; 9.77 µg/mL (≈ 53.1 µM) in series [3]; 6.13 µg/mL (≈ 33.3 µM) in series [4]; 17.35 µg/mL (≈ 94.2 µM) in [5]; 17.98 µg/mL (≈ 97.6 µM) in [6]; 2.56 µg/mL (≈ 13.9 µM) in series [8]. Besides, the TGI came out at 18.31 µg/mL (≈ 99.4 µM) in series [9]; 2360 nM in [10] (MCF-7, as printed in the text); 2.36 µg/mL in series [10] (setting [13]); 3.27 µg/mL (≈ 17.8 µM) in [11] (48 h). Also, the CC50 at 48 h in series [2] was greater than 100 µg/mL. Besides, the CC50 was 31.4 µg/mL (≈ 170 µM) in [4] (Homo sapiens, U-251, 48 h, read-out: LC50) and 26.2 µg/mL (≈ 142 µM) in series [11] (Homo sapiens, HT-29, killing 50% of cells, 48 h, read-out: LC50 (the source's name)).
In the case of `CN(C)c1ccc(/C=N/NC(=O)c2cc(O)c(O)c(O)c2)cc1` [Compound 5, N'-(4-Dimethylaminobenzylidene)galloyl hydrazide], the concentration for 50% growth inhibition (GI50) in [1] (Homo sapiens) was 4050 nM; in series [3] (Homo sapiens), 2930 nM; in series [4] (Homo sapiens, U-251, 48 h) it was 24100 nM; in series [5] (Homo sapiens), 21600 nM; in [6] (Homo sapiens), 8930 nM; in series [7] (Homo sapiens, K562), 2050 nM. The GI50 in series [8] (Homo sapiens) was 4680 nM; in [10] (Homo sapiens, MCF7), 8610 nM; in series [11] (Homo sapiens), 16200 nM. Further, the TGI turned out to be 18.41 µg/mL (≈ 58.4 µM) in series [1]; 41.52 µg/mL (≈ 132 µM) in [3]; 8980 nM in series [7] (K-562, as printed in the text); 8.98 µg/mL in series [7] (setting [14]); 83.07 µg/mL (≈ 263 µM) in [8]; 20.26 µg/mL in series [10] (setting [13]). This molecule also had a TGI in series [11] (48 h) of 48.50 µg/mL (≈ 154 µM). Also, the CC50 at 48 h in series [2] is 55.3 µg/mL (≈ 175 µM). The CC50 in series [10] (Homo sapiens, MCF7, MCF-7, killing 50% of cells, 48 h, read-out: LC50 (the source's name)) stood at 47.9 µg/mL (≈ 152 µM).
“Galloyl-2-thioxo-1,3,4-oxadiazole [Compound 9]”: the 50% growth inhibitory concentration (GI50) in series [1] was 2250 nM; in [3], 890 nM; in series [4] (U251, 48 h, SRB), 4200 nM; in series [12], less than 8900 nM; in series [5], 8770 nM; in series [6], 8900 nM. The GI50 was found to be 1720 nM in series [7]; 2830 nM in series [8]; 6050 nM in series [9]; 1080 nM in series [10]; 2610 nM in series [11]. Also, the concentration for total growth inhibition (TGI) is recorded as 16.53 µg/mL in [1]; 13.62 µg/mL in [3]; 14.58 µg/mL in series [4]; 19.43 µg/mL in series [5]; 24.68 µg/mL in [6]; 11.35 µg/mL in series [7] (setting [14]). The total growth inhibition concentration (TGI) in series [8] stood at 15.86 µg/mL; in series [9] it was 18.09 µg/mL; in [10] (setting [13]), 5.06 µg/mL; in [11] (48 h), 13.74 µg/mL. Further, the LC50 result is recorded as “(58.99) µg/mL” in series [3]; “(41.26) µg/mL” in [4]; “(42.67) µg/mL” in series [5]; “(58.99) µg/mL” in series [7]; “(56.99) µg/mL” in series [9]; “(58.99) µg/mL” in series [11].
